Reference: patent US20260226048A1, “MULTI-CYCLIC IRAK AND FLT3 INHIBITING COMPOUNDS AND USES THEREOF” (CHILDREN'S HOSPITAL MEDICAL CENTER, priority 2023, published 2026)
Like-named read-outs stand apart in the source and are kept apart here.

Key:
[1] = target: T1, IRAK1 (Homo sapiens, UniProt P51617); assay: RBC HotSpot Kinase Assay, IRAK1; assay type: biochemical; settings: isolated kinase enzyme, 33P-ATP, P81 filter-binding
T1 construct: purchased Reaction Biology (RBC HotSpot)
Outline: (§1)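 Radiometric HotSpot assay of catalytic activity with isolated recombinant kinase, possibly truncated or kinase domain only. Buffer: 20 mM Hepes pH 7.5, 10 mM MgCl2, 1 mM EGTA, 0.01% Brij35, 0.02 mg/ml BSA, 0.1 mM Na3VO4, 2 mM DTT, 1% DMSO, with cofactors specific to each kinase.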

[2] = test system: MOLM14 D835Y cells; assay: MOLM14 D835Y cell viability assay (Cell Titer Glo); assay type: cell-based; settings: cell viability, Cell Titer Glo, 48 hours, read-out: MOLM14 D835Y IC50
Outline: (§2)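 MOLM14 cells with FLT3 D835Y or F691L kinase-domain resistance mutations seeded at 1000 cells/well and exposed to compound for 48 h under standard incubator conditions. Viability read by CellTiter-Glo luminescence after 15 min at room temperature.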

[3] = test system: MOLM14 F691L cells; assay: MOLM14 F691L cell viability assay (Cell Titer Glo); assay type: cell-based; settings: Homo sapiens, MOLM-14; cell viability, Cell Titer Glo, 48 hours; read-out: MOLM14 F691L IC50
Outline: as §2

[4] = test system: THP1 cells (FLT3 WT); assay: Combination drug screening with venetoclax in THP1 cells (Cell Titre Glo, 10 × 10); assay type: cell-based; settings: for Excess HSA (sum excess HSA score, combination with venetoclax): 10 × 10 dataset, Cell Titre Glo at 48 hours, optimal of 4 dose combinations, negative = synergy; for Concentration needed to decrease the 312.5 nM Venetoclax response to <20%: Cell Titer Glo at 48 hours
Description: These assays were performed using the Cell Titre Glo assay, measured at 48 hours.
A smaller concentration indicates higher potency to synergize with Venetoclax.

[5] = target: T2, FLT3 (Homo sapiens, UniProt P36888); assay: RBC HotSpot Kinase Assay, FLT3; assay type: biochemical; design: purchased Reaction Biology (RBC HotSpot); settings: isolated kinase enzyme, 33P-ATP, P81 filter-binding
T2 sequence (P36888 27-993): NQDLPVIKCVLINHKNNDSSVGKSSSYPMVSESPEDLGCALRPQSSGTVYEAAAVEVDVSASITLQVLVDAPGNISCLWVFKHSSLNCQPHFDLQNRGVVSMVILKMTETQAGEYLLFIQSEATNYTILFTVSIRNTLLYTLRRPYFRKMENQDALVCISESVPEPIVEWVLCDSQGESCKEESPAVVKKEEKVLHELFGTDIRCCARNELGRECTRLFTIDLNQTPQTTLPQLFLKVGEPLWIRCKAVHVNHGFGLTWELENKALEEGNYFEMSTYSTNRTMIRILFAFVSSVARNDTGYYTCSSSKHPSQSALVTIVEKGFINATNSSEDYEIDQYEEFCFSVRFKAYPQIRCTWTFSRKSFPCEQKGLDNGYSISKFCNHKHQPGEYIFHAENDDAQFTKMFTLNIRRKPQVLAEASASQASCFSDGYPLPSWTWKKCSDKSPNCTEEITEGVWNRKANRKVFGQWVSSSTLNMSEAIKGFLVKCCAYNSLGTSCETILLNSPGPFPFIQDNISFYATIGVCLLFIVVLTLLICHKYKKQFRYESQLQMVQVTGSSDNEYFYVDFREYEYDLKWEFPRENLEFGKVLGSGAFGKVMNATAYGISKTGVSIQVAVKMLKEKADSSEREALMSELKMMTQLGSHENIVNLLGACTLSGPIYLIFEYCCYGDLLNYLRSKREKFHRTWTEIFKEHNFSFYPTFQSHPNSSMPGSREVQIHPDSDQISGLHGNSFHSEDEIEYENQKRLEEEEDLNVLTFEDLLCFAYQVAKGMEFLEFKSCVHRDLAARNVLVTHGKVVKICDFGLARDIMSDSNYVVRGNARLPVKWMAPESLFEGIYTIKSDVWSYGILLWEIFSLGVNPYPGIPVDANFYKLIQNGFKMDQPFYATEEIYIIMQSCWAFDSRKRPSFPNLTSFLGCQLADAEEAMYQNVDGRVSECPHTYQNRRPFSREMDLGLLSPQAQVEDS
Outline: as §1

T1 sequence (P51617 whole entry): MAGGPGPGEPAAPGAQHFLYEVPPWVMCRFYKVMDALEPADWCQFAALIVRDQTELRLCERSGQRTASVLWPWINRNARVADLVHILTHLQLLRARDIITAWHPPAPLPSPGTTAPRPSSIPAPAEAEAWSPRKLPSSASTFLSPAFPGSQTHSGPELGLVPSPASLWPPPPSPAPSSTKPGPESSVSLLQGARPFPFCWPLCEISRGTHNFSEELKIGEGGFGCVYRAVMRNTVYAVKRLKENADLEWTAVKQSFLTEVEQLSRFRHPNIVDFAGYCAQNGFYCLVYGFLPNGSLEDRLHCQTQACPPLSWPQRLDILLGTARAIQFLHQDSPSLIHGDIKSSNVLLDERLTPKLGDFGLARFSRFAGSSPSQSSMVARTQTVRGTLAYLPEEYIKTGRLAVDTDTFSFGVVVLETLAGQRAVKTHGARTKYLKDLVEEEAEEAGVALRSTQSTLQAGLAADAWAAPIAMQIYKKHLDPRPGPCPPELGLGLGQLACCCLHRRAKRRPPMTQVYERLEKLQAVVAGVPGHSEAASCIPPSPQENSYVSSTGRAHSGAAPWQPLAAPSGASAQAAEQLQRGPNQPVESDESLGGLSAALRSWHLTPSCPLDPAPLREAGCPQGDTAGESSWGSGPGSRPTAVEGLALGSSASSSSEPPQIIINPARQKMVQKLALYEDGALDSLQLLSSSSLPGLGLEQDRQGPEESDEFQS

Row | Structure (SMILES) | IC50 [1] | IC50 ([2]; Homo sapiens, MOLM-14, 48 h) | IC50 [3] | Excess HSA (sum excess HSA score, combination with venetoclax) [4] | Concentration needed to decrease the 312.5 nM Venetoclax response to <20% [4] | IC50 [5] | IC50 [2]
1 | F[C@H]1CCNC[C@@H]1Nc1nccc(-c2cnc3cc(OC4CC4)c(C4CC4)nn23)n1 [Compound 12a, 4-(7-cyclopropoxy-6-cyclopropylimidazo[1,2-b]pyridazin-3-yl)-N-((3S,4S)-4-fluoropiperidin-3-yl)pyrimidin-2-amine] | 18 nM | 23 nM | 101 nM | −1770.6140 | 5 µM | < 0.5 nM | –
2 | CC(O)(c1ccc2ncc(-c3ccnc(N[C@@H]4CCCNC4)n3)n2c1)C(F)(F)F (single isomer, unassigned) [Compound 23a] | 3 nM | – | – | – | – | < 0.5 nM | 16 nM
3 | COc1cc2ncc(-c3nc(N[C@H]4CNCC[C@@H]4F)ncc3F)n2nc1N1CCCS1(=O)=O [Compound 112a, 2-(3-(5-fluoro-2-(((3S,4S)-4-fluoropiperidin-3-yl)amino)pyrimidin-4-yl)-7-methoxyimidazo[1,2-b]pyridazin-6-yl)isothiazolidine 1,1-dioxide] | 19 nM | 3 nM | 23 nM | – | – | < 0.5 nM | –
4 | COc1cc2ncc(-c3nc(N[C@@H]4CCCNC4)ncc3F)n2nc1C1CC2(CCC2)C1 [Compound 59a, (R)-5-fluoro-4-(7-methoxy-6-(spiro[3.3]heptan-2-yl)imidazo[1,2-b]pyridazin-3-yl)-N-(piperidin-3-yl)pyrimidin-2-amine] | 0.7 nM | 7 nM | 45 nM | −914.4 | 5 µM | < 0.5 nM | –
5 | COc1cc2ncc(-c3nc(N[C@H]4CNCC[C@@H]4F)ncc3F)n2nc1C1CC(F)(F)C1 [Compound 49a, 4-(6-(3,3-difluorocyclobutyl)-7-methoxyimidazo[1,2-b]pyridazin-3-yl)-5-fluoro-N-((3S,4S)-4-fluoropiperidin-3-yl)pyrimidin-2-amine] | 2 nM | 15 nM | – | −1767 | 10 µM | < 0.5 nM | –
6 | COc1cc2ncc(-c3nc(N[C@H]4CNCC[C@@H]4F)ncc3F)n2nc1C(C)(C)O [Compound 45a, 2-(3-(5-fluoro-2-(((3S,4S)-4-fluoropiperidin-3-yl)amino)pyrimidin-4-yl)-7-methoxyimidazo[1,2-b]pyridazin-6-yl)propan-2-ol] | 18 nM | 15 nM | 90 nM | −1158 | 10 µM | < 0.5 nM | –
7 | COc1cc2ncc(-c3nc(N[C@H]4CNCC[C@@H]4F)ncc3F)n2nc1C1CC2(CCC2)C1 [Compound 60a, 5-fluoro-N-((3S,4S)-4-fluoropiperidin-3-yl)-4-(7-methoxy-6-(spiro[3.3]heptan-2-yl)imidazo[1,2-b]pyridazin-3-yl)pyrimidin-2-amine] | 4 nM | 11 nM | 90 nM | −1548 | 5 µM | < 0.5 nM | –
8 | COc1cc2ncc(-c3nc(N[C@H]4CNCC[C@@H]4F)ncc3F)n2nc1C1COC1 [Compound 92a, 5-fluoro-N-((3S,4S)-4-fluoropiperidin-3-yl)-4-(7-methoxy-6-(oxetan-3-yl)imidazo[1,2-b]pyridazin-3-yl)pyrimidin-2-amine] | 4 nM | 5 nM | 40 nM | −529.2 | 5 µM | < 0.5 nM | –
9 | CC(O)(c1ccc2ncc(-c3cncc(N[C@@H]4CCCNC4)n3)n2c1)C(F)(F)F (single isomer, unassigned) [Compound 28a] | 33 nM | 204 nM | – | – | – | 2 nM | –
10 | CC(C)(O)c1ccc2ncc(-c3nc(N[C@@H]4CCCNC4)ncc3F)n2c1 [Compound 48a, (R)-2-(3-(5-fluoro-2-(piperidin-3-ylamino)pyrimidin-4-yl)imidazo[1,2-a]pyridin-6-yl)propan-2-ol] | 10 nM | 36 nM | – | −759.8 | 2.5 µM | 1 nM | –
11 | CC(O)(c1ccc2ncc(-c3cncc(N[C@H]4CNCC[C@@H]4F)n3)n2c1)C(F)(F)F (single isomer, unassigned) [Compound 31a] | 17 nM | – | – | – | – | 1 nM | 162 nM
12 | FC(F)COc1cc2ncc(-c3ccnc(N[C@H]4CNCC[C@@H]4F)n3)n2nc1C1CC1 [Compound 4a, 4-(6-cyclopropyl-7-(2,2-difluoroethoxy)imidazo[1,2-b]pyridazin-3-yl)-N-((3 S,4S)-4-fluoropiperidin-3-yl)pyrimidin-2-amine] | 31 nM | 9 nM | 36 nM | −2433 | 2.5 µM | < 0.5 nM | –
13 | CC(C)(O)c1ccc2ncc(-c3nc(N[C@H]4CNCC[C@@H]4F)ncc3F)n2c1 [Compound 46a, 2-(3-(5-fluoro-2-(((3S,4S)-4-fluoropiperidin-3-yl)amino)pyrimidin-4-yl)imidazo[1,2-a]pyridin-6-yl)propan-2-ol] | 6 nM | 33 nM | 252 nM | −774 | 2.5 µM | < 0.7 nM | –
14 | CC(O)(c1ccc2ncc(-c3ccnc(N[C@@H]4CCCNC4)n3)n2c1)C(F)(F)F (single isomer, unassigned) [Compound 22a] | 19 nM | – | – | – | – | 0.6 nM | 36 nM
15 | COc1cc2ncc(-c3nc(N[C@H]4CNCC[C@@H]4F)ncc3F)n2nc1C1CC1 [Compound 1a, 4-(6-cyclopropyl-7-methoxyimidazo[1,2-b]pyridazin-3-yl)-5-fluoro-N-((3S,4S)-4-fluoropiperidin-3-yl)pyrimidin-2-amine] | 1 nM | 1 nM | 6 nM | −696.6 | 2.5 µM | 0.5 nM | –
16 | CC(O)(c1ccc2ncc(-c3ccnc(N[C@H]4CNCC[C@@H]4F)n3)n2c1)C(F)(F)F (single isomer, unassigned) [Compound 25a] | 17 nM | 36 nM | – | −1386 | 1.25 µM | < 0.5 nM | –
17 | CC(C)(O)c1cn2c(-c3nc(N[C@H]4CNCC[C@@H]4F)ncc3F)cnc2cn1 [Compound 100a, 2-(3-(5-fluoro-2-(((3S,4S)-4-fluoropiperidin-3-yl)amino)pyrimidin-4-yl)imidazo[1,2-a]pyrazin-6-yl)propan-2-ol] | 24 nM | 90 nM | 603 nM | −1080 | 10 µM | 1 nM | –
18 | COc1cc2ncc(-c3nc(N[C@H]4CNC[C@@H]4F)ncc3F)n2nc1N1CCCS1(=O)=O [Compound 111a, 2-(3-(5-fluoro-2-(((3S,4S)-4-fluoropyrrolidin-3-yl)amino)pyrimidin-4-yl)-7-methoxyimidazo[1,2-b]pyridazin-6-yl)isothiazolidine 1,1-dioxide] | 40 nM | 13 nM | 113 nM | – | – | < 0.5 nM | –
